Experiments:
S1P-1 receptor [1] = biological target: T1, S1P-1 receptor (Homo sapiens, UniProt P21453); experiment: [33P]sphingosine 1-phosphate binding assay, S1P-1 receptor; parameters: expressed in transfected cells; host or cells: HEK 293 T cells (transient, FuGENE 6), crude membranes
Experimental: In certain embodiments, the compounds of the invention selective for the S1P-1 receptor as compared to one or more of the other S1P receptors. For example, one set of compounds includes compounds which are selective for the S1P-1 receptor relative to the S1P-3 receptor. […] The EC50 of a compound is determined using the ^35S-GTPγS binding assay, as described in WO 03/061567, the entire contents of which are incorporated herein by reference. […] The IC50 of a compound is determined using the [^33P]sphingosine 1-phosphate binding assay, as described in Davis, M. D. et al., Sphingosine 1-Phosphate Analogs as Receptor Antagonists. J. Biol. Chem. (2005) 280:9833-9841, the entire contents of which are incorporated herein by this reference.
The terms “agonist” or “S1P-1 receptor agonist” as used herein include the compounds described herein which bind to and/or agonize the S1P-1 receptor. […] The compounds' IC50 for the S1P-1 receptor can be measured using the binding assays described in Example 13 or those described in WO 03/061567.
The ability of several of the compounds described herein to bind to the S1P-1 or S1P-3 receptor was also tested as follows.
For the membrane preparation, plasmid DNA was transfected into HEK 293 T cells using the FuGENE 6 transfection protocol (publicly available from Roche). […] Protein concentration was determined spectroscopically by Bradford protein assay. […]

C57Bl/6 mice = experiment: Lymphopenia assay in mice; format: in vivo; details: 10 mg/Kg oral dose, male C57Bl/6 mice, blood taken after 6 hours
Experimental: Several of the compounds described herein were evaluated for the ability to induce lymphopenia in mice. Male C57Bl/6 mice were divided into groups of three. A control group received the 3% BSA vehicle only. The other groups received a single dose of either a specified dose of test compound in vehicle administered orally (PO) and intravenously (IV). After 6 hours, the mice were anesthetized with isoflurane and approximately 250 μL of blood was removed from the retroorbital sinus and collected in an EDTA microtainer, mixed with an anticoagulant and placed on a tilt table until complete blood count (CBC) analysis.

human S1P3 receptor = biological target: T2, human S1P3 receptor (Homo sapiens, UniProt Q99500); experiment: GTPgS assay, S1P3; format: biochemical; details: [35S]-GTPgS, membranes of RBL cells expressing human S1P3; tested as trifluoracetic acid salt; read-out: pEC50 in the S1P3 assay (converted)
T2 construct: expressed in transfected cells; membranes
T2 sequence (Q99500 whole entry): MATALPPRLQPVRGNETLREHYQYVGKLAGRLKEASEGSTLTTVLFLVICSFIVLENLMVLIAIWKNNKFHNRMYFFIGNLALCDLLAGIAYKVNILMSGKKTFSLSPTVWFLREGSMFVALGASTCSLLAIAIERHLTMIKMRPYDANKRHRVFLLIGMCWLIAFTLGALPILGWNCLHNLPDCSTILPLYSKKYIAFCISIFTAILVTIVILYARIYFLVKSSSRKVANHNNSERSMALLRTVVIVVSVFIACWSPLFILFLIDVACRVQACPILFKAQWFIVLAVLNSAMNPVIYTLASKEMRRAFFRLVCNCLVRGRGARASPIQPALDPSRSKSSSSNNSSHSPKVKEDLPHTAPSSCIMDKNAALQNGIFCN
Experimental: (§1) For membrane preparations all steps were performed at 4° C. Rat hepatoma cells stably expressing the human S1P1 receptor or Rat Basophilic Leukaemia cells (RBL) stably expressing human S1P3 receptor were grown to 80% confluency before being harvested into 10 ml Phospho-Buffered Saline (PBS) and centrifuged at 1200 rpm for 5 minutes. After removal of the supernatant, the pellet was re-suspended and cells were homogenised within a glass Waring blender for 2 bursts of 15 secs in 200 mls of buffer (50 mM HEPES, […], 25 ug/ml bacitracin, 1 mM EDTA, 1 mM PMSF, 2 uM pepstatin A). The blender was plunged into ice for 5 mins after the first burst and 10-40 mins after the final burst to allow foam to dissipate. The material was then spun at 500 g for 20 mins and the supernatant spun for 36 mins at 48,000 g. The pellet was resuspended in the same buffer as above but without PMSF and pepstatin A. The material was then forced through a 0.6 mm needle, made up to the required volume, (usually ×4 the volume of the original cell pellet), aliquoted and stored frozen at −80° C. […]
(§2) After 30 minutes pre-coupling at 4° C. the bead and membrane suspension was dispensed into a white Greiner polypropylene LV384-well plate (5 ul/well), containing 0.1 ul of test compound or S1P. […] The final assay cocktail (10.1 ul) was centrifuged at 1000 rpm for 5 minutes then read immediately on a Viewlux. […]

S1P-1 receptor [2] = biological target: T1, S1P-1 receptor; experiment: GTPgS assay, S1P1; format: biochemical; parameters: expressed in transfected cells; membranes; details: [35S]-GTPgS, membranes of rat hepatoma cells expressing human S1P1; tested as trifluoracetic acid salt; read-out: pEC50 in the S1P1 assay (converted)
Experimental: as §1, §2

T1 sequence (P21453 whole entry): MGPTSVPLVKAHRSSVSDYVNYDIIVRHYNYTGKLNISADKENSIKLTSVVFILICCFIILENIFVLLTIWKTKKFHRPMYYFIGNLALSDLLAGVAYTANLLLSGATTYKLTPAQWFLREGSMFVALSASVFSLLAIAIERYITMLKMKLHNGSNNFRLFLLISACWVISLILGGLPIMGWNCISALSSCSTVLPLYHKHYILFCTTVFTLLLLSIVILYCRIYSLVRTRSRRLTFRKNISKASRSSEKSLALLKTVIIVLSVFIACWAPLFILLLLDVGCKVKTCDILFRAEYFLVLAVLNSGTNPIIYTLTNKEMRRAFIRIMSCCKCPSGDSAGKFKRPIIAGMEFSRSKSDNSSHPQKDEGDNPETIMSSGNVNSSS

Compound	IC50 (S1P-1 receptor [1])	lymphopenia (C57Bl/6 mice)	EC50 (human S1P3 receptor)	EC50 (S1P-1 receptor [2])
C[C@](N)(COP(=O)(O)O)c1nnc(-c2ccc(OCCCCc3ccccc3)c(C(F)(F)F)c2)s1	3.23 nM	–	–	–
CCCCCCCCOc1ccc(-c2cnc([C@@](C)(N)CO)s2)cc1C(F)(F)F [(S)-2-amino-2-(5-(4-(octyloxy)-3-(trifluoromethyl)phenyl)thiazol-2-yl)propan-1-ol]	–	75%	–	–
CCCCCCCCOc1ccc(-c2cnc([C@@](C)(N)COP(=O)(O)O)s2)cc1C(F)(F)F [(S)-2-amino-2-(5-(4-(octyloxy)-3-(trifluoromethyl)phenyl)thiazol-2-yl)propyl dihydrogen phosphate]	–	–	316 nM	3.16 nM
CCCCCCCCOc1ccc(-c2nnc([C@@](C)(N)COP(=O)(O)O)s2)cc1C(F)(F)F [(S)-2-Amino-2-(5-(4-(octyloxy)-3-(trifluoromethyl)phenyl)-1,3,4-thiadiazol-2-yl)propyl dihydrogen phosphate]	–	–	794 nM	0.631 nM
CCCCCCCCOc1ccc(-c2nnc([C@@](C)(N)CO)s2)cc1C(F)(F)F [(S)-2-amino-2-(5-(4-(octyloxy)-3-(trifluoromethyl)phenyl)-1,3,4-thiadiazol-2-yl)propan-1-ol]	–	77%	–	–

Source: patent publication US20100009936A1, “CHEMICAL COMPOUNDS” (PRAECIS PHARMACEUTICALS INCORPORATED, priority 2006, published 2010)
